Reference: patent publication US20110039812A1, “N-ALKYLCARBONYL-D-AMINO HYDROXYALKYL ESTER COMPOUNDS AND THEIR USE” (priority 2006, published 2011)

Legend:
oral cavity = experiment: Oral cavity test of tablets placed in the back of the mouth; format: in vivo, human
Experimental: The NACHE were also tested in the oral cavity using these methods: a) placement of 2 mg of the crystalline chemical on the dorsal surface of the tongue, b) incorporation of 2 mg of NACHE into a rapidly-distintegrating tablet of 60 mg weight, and placement of the tablet on the caudal-dorsal surface of the tongue, c) placement of a 0.3 mL aliquot of a 5 mg/mL solution of a NACHE in a 50% ethanol-distilled water solution, and d) delivery of a 5 mg/mL solution of a NACHE in a 50% ethanol-distilled water solution into the oral cavity using a hand-activated mouth spray dispenser. The tests in the oral cavity were important because many cooling agents used in confectionery and comestibles have disagreeable tastes of bitterness, harshness or burning qualities that limit their utility in such items as candy, mints, mouthwashes, mouth fresheners, and cough syrups.
Tablets of CPS-154 were prepared. To weighed samples of about 200 mg of CPS-154 was added varying amounts of Ludipress® (BASF, Germany) to give CPS-154 concentrations of 2.5, 3. 5, 10 and 10% by wt. The two ingredients were then thoroughly mixed in a mortar and pestle. To this mixture when then added 5 to 7 mL of 10% ethanol −90% distilled water solution. Using an eye dropper or a pipette, fixed volumes of the solution was placed on wax paper and dried under a heat source. The tablets were then sized and weighed.
Using the above formulation methods, three doses of 1, 2 and 4 mg per application were examined. […] The onset effect was usually within 30 seconds of application. […] Also, the effects of menthol were short-lived, on the order 8 to 12 minutes, versus a 20 to 30 minute period or longer.

[1] = tested on: dorsal surface of the tongue; details: average for 6 subjects, after 30 seconds; cited from earlier work
skin above the upper lip = experiment: Cooling sensation bioassay: ointment applied to skin above the upper lip; format: in vivo, human
From the text: A reliable place for topical application is the skin above the upper lip (above the vermilion border of the lips), on the philtrum, lateral to the philtrum until the nasolabial folds, and on the lower nostrils (subnasale). This part of the face is known to be densely innervated with cold receptors, second only to the surfaces of the eyeball and anogenitalia. A second location is on or below the malar eminence (cheekbone). The skin above the cheekbone is thicker than above the lips, and therefore has a higher threshold for activation. At both loci, tingling, cool and cold sensations in the skin may be experienced and rated for time of onset and intensity.
The intensity of the subjective skin sensation is rated as 0, 1, 2 or 3 with 0 as no change, 1 as slight coolness, cold, or tingling, 2 as clear-cut signal of coolness, cold, or tingling, and 3 as robust cooling or cold. The intervals for recording sensations are 5 to 10 minutes, until two successive zeroes are obtained. The results (shown in FIG. 1) are averaged values of 4 to 6 separate trials in the same individual. The data are plotted using SigmaPlot (Systat Software, Point Richmond Calif.) and a smoothing function with a negative eponential was used for analysis and statistical fit of the results. […]

cough [2] = experiment: Powder on the tongue of two cigar smokers with cough; format: in vivo, human
From the text: Two males, were inveterate cigar smokers consuming 3 to 5 cigars per day. They both had frequent bouts of dry, non-productive, hacking coughs. At night, there were episodes of insomnia characterized by difficulties in breathing, an oppressive pressure on the chest and throat, and subsequent awakening with sensations of choking. During the day, a frequent and persistent sensation was that of tickling, irritative feelings in the back of the throat that led to coughing.
In 10 trials per subject, 2 mg of 92% pure powder of CPS-154 was placed on the mid-portion of the tongue of these two subjects. Both subjects reported relief from the desire to cough within 1 minute after application. Sensations of robust coolness in the back of the throat was noted and lasted for 15 to 20 minutes. Applications of similar amounts of powdered sugar were not effective, but the placebo could be clearly distinguished from the active compound because of the absence of cooling sensations.

[3] = tested on: asthmatic coughing attacks; experiment: Tablets as needed in a subject with asthma; format: in vivo, human
From the text: A person with a documented 31-year history of asthma attacks volunteered to test one of the compounds of Formula 1. They were extremely sensitive to agents such as tobacco smoke, dust, pollen, odors, down/woolen materials, house cleansing products, pets, and sudden change of air temperature and reacted with violent coughing, mucus secretions, wheezing, choking, and shortness of breath. At the time of this trial, they were taking these medications for their condition: theophylline, Allegra®, Advair®, Intal®, and Singulair®. They were given 20 tablets of CPS-154, synthesized as described in Example 3, and instructed to take one on an as-needed basis.

viral cough = experiment: Tablets as needed in a subject with viral cough; format: in vivo, human; details: 2.0 mg tablets as needed
Experimental: A person has severe allergies and also developed a cough after a cruise trip overseas. Upon visit to a physician, they were diagnosed with a “viral cough” and prescribed codeine in a syrup. They volunteered to try CPS-154 tablets and was supplied with 15 tablets stored in a flip top plastic box, each containing 2.0 mg of CPS-154, in a 4% wt/wt lactose matrix (Ludipress®). The subject was instructed to take one tablet on an as-needed basis, with a preferred interval of 3 to 4 hours between tablets.

cough [4] = experiment: Orally-disintegrating tablet in the back of the mouth, anti-tussive action; format: in vivo; details: 40 to 60 mg Ludipress tablet containing 1 to 5 mg
From the text: Especially favored in this invention is the formulation of the NACHE of Formula 1, into an orally-disintegrating tablet.

Structure (SMILES)	quality and site of cooling sensations (oral cavity; tablets, 2 or 4 mg dose)	Threshold (amount producing cooling sensations on the tongue), average [1]	duration of action of cooling on the skin of the upper lip (skin above the upper lip; Aquaphor ointment 0.5 and 1% wt/vol, 50 to 80 mg)	potency / cooling activity on the skin of the upper lip (comparison, FIG. 1) (skin above the upper lip; ointment on upper lip skin)	dissolution of tablets in the back of the mouth (oral cavity; Ludipress tablets)	activity in the oral cavity, D-analog versus L-equivalent (oral cavity; tablets)	onset of cooling effect after application (oral cavity; tablets, 2 or 4 mg dose)	time to relief from the desire to cough (cough [2]; 2 mg of 92% pure powder on mid-portion of the tongue, 2 subjects)	time the desire to cough was removed (cough [2]; after 8 applications, continued smoking of cigars)	recurrence of asthmatic coughing attacks ([3]; continued use of tablets as needed)	side-effects ([3]; one tablet, asthma subject)	effect on cough severity (viral cough)	anti-tussive action (cough [4])
CC1CCC(C(C)C)C(O)C1 (single isomer, unassigned; (-)) [Menthol, (−)-menthol, reference compound]	cooling primarily in the nasopharynx and less in the oral cavity	0.25 µg	–	–	–	–	–	–	–	–	–	–	–
CC(C)[C@@H]1CC[C@@H](C)C[C@H]1C(=O)N[C@H](C)C(=O)OCCCO [CPS-154, (R)-2-[((1R,2S,5R)-2-isopropyl-5-methyl-cyclohexanecarbonyl)-amino]-propionic acid 3-hydroxy-propyl ester]	pleasant and robust cooling sensations on the tongue, extending down to the back of throat	–	more than 1 hour	comparable to its alkyl ester analog, CPS-369	dissolved within a matter of seconds	clearly more active than the L-equivalent	≤ 30 s	≤ 1 min	at least 3 days	have not recurred with any severity for six months	did not sense any build up of sputum or other side-effects	less severe	robust anti-tussive action for several hours
